Laboratory results published in patent US7183415B2, “Quinoline compound” (Takeda Pharmaceutical Company Limited, priority 2001, dated 2007).

For `Cc1cc2cc(CN3CCCC3)cnc2cc1NC(=O)c1ccc(-c2ccc(Cl)cc2)c(F)c1` [Example 235, 4′-chloro-2-fluoro-N-[6-methyl-3-(1-pyrrolidinylmethyl)-7-quinolinyl][1,1′-biphenyl]-4-carboxamide], the melting point was 181 to 185 °C.
With `COc1ccc(-c2ccc(C(=O)Nc3cc4ncc(CN5CCCC5)cc4cc3C)cc2F)cc1` [Example 236, 2-fluoro-4′-methoxy-N-[6-methyl-3-(1-pyrrolidinylmethyl)-7-quinolinyl][1,1′-biphenyl]-4-carboxamide] the melting point was 165 to 167 °C.
In the case of `Cc1cc2cc(CN3CCCCCC3)cnc2cc1NC(=O)c1ccc(-c2ccc(Cl)cc2)cc1` [Example 238, N-[3-(1-azepanylmethyl)-6-methyl-7-quinolinyl]-4′-chloro[1,1′-biphenyl]-4-carboxamide], the melting point is reported as 204 °C.
`Cc1cc2cc(CN3CCCCCC3)cnc2cc1NC(=O)c1ccc(-c2cc3ccccc3o2)cc1` [Example 240, N-[3-(1-azepanylmethyl)-6-methyl-7-quinolinyl]-4-(1-benzofuran-2-yl)benzamide] gave a melting point of 207 °C.
Work on `Cc1cc2cc(CN3CCCCCC3)cnc2cc1NC(=O)c1ccc(-c2ccc(Cl)s2)cc1` [Example 241, N-[3-(1-azepanylmethyl)-6-methyl-7-quinolinyl]-4-(5-chlorothien-2-yl)benzamide] yielded a melting point of 180 °C.
For `Cc1cc2cc(CN3CCCCCC3)cnc2cc1NC(=O)c1ccc(-c2ccc(Cl)cc2)cc1F` [Example 243, N-[3-(1-azepanylmethyl)-6-methyl-7-quinolinyl]-4′-chloro-3-fluoro[1,1′-biphenyl]-4-carboxamide], the melting point was 209 °C.
`Cc1cc2cc(CN3CCCCCC3)cnc2cc1NC(=O)c1ccc(-c2ccc(F)cc2)cc1F` [Example 244, N-[3-(1-azepanylmethyl)-6-methyl-7-quinolinyl]-3,4′-difluoro[1,1′-biphenyl]-4-carboxamide] showed a melting point of 170 °C.
`COc1ccc(-c2ccc(C(=O)Nc3cc4ncc(CN5CCCCCC5)cc4cc3C)c(F)c2)cc1` [Example 245, N-[3-(1-azepanylmethyl)-6-methyl-7-quinolinyl]-3-fluoro-4′-methoxy[1,1′-biphenyl]-4-carboxamide] gave a melting point of 168 °C.
Work on `Cc1cc2cc(CN3CCCCCC3)cnc2cc1NC(=O)c1ccc(-c2ccccc2)cc1F` [Example 246, N-[3-(1-azepanylmethyl)-6-methyl-7-quinolinyl]-3-fluoro[1,1′-biphenyl]-4-carboxamide] yielded a melting point of 151 °C.
Molecule `Cc1cc2cc(CN(C)C)cnc2cc1NC(=O)c1ccc(-c2ccc(F)cc2)cc1` [Example 248, N-{3-[(dimethylamino)methyl]-6-methyl-7-quinolinyl}-4′-fluoro[1,1′-biphenyl]-4-carboxamide] has a melting point of 183 to 186 °C.
For `CCN(CC)Cc1cnc2cc(NC(=O)c3ccc(-c4ccc(F)cc4)cc3)c(C)cc2c1` [Example 249, N-{3-[(diethylamino)methyl]-6-methyl-7-quinolinyl)-4′-fluoro[1,1′-biphenyl]-4-carboxamide], the melting point was 145 to 148 °C.
`Cc1cc2cc(CN3CCCCC3)cnc2cc1NC(=O)c1ccc(-c2ccc(F)cc2)cc1` [Example 250, 4′-fluoro-N-[6-methyl-3-(1-piperidinylmethyl)-7-quinolinyl][1,1′-biphenyl]-4-carboxamide] showed a melting point of 185 to 188 °C.
Work on `Cc1cc2cc(CN3CCCCCC3)cnc2cc1NC(=O)c1ccc(-c2ccc(F)cc2)cc1` [Example 251, N-[3-(1-azepanylmethyl)-6-methyl-7-quinolinyl]-4′-fluoro[1,1′-biphenyl]-4-carboxamide] yielded a melting point of 170 to 174 °C.
Molecule `Cc1cc2cc(CN3CCOCC3)cnc2cc1NC(=O)c1ccc(-c2ccc(F)cc2)cc1` [Example 252, 4′-fluoro-N-[6-methyl-3-(4-morpholinylmethyl)-7-quinolinyl][1,1′-biphenyl]-4-carboxamide] has a melting point of 153 to 158 °C.
In the case of `Cc1cc2cc(CN3CCC(CCC(N)=O)CC3)cnc2cc1NC(=O)c1ccc(-c2ccc(F)cc2)cc1` [Example 253, N-(3-{[4-(3-amino-3-oxopropyl)-1-piperidinyl]methyl}-6-methyl-7-quinolinyl)-4′-fluoro[1,1′-biphenyl]-4-carboxamide], the melting point is reported as 223 to 227 °C.
Work on `CNC(=O)CCC1CCN(Cc2cnc3cc(NC(=O)c4ccc(-c5ccc(F)cc5)cc4)c(C)cc3c2)CC1` [Example 254, 4′-fluoro-N-[6-methyl-3-({4-[3-(methylamino)-3-oxopropyl]-1-piperidinyl}methyl)-7-quinolinyl][1,1′-biphenyl]-4-carboxamide] yielded a melting point of 207 to 211 °C.
With `CCNC(=O)CCC1CCN(Cc2cnc3cc(NC(=O)c4ccc(-c5ccc(F)cc5)cc4)c(C)cc3c2)CC1` [Example 255, N-[3-({4-[3-(ethylamino)-3-oxopropyl]-1-piperidinyl}methyl)-6-methyl-7-quinolinyl]-4′-fluoro[1,1′-biphenyl]-4-carboxamide] the melting point was 227 to 230 °C.
In the case of `Cc1cc2cc(CN3CCC(CCC(=O)N(C)C)CC3)cnc2cc1NC(=O)c1ccc(-c2ccc(F)cc2)cc1` [Example 256, N-[3-({4-[3-(dimethylamino)-3-oxopropyl]-1-piperidinyl}methyl)-6-methyl-7-quinolinyl]-4′-fluoro[1,1′-biphenyl]-4-carboxamide], the melting point is reported as 193 to 196 °C.
`CCN(CC)C(=O)CCC1CCN(Cc2cnc3cc(NC(=O)c4ccc(-c5ccc(F)cc5)cc4)c(C)cc3c2)CC1` [Example 257, N-[3-({4-[3-(diethylamino)-3-oxopropyl]-1-piperidinyl}methyl)-6-methyl-7-quinolinyl]-4′-fluoro[1,1′-biphenyl]-4-carboxamide] showed a melting point of 150 to 154 °C.
Molecule `Cc1cc2cc(CN3CCC(CCC(=O)N4CCCCC4)CC3)cnc2cc1NC(=O)c1ccc(-c2ccc(F)cc2)cc1` [Example 258, 4′-fluoro-N-[6-methyl-3-({4-[3-oxo-3-(1-piperidinyl)propyl]-1-piperidinyl}methyl)-7-quinolinyl][1,1′-biphenyl]-4-carboxamide] has a melting point of 189 to 191 °C.
With `Cc1cc2cc(CN3CCC(CCCC(=O)N4CCCCC4)CC3)cnc2cc1NC(=O)c1ccc(-c2ccc(F)cc2)cc1` [Example 259, 4′-fluoro-N-[6-methyl-3-({4-[4-oxo-4-(1-piperidinyl)butyl]-1-piperidinyl}methyl)-7-quinolinyl][1,1′-biphenyl]-4-carboxamide] the melting point was 179 °C.
In the case of `CCN(CC)C(=O)CCCC1CCN(Cc2cnc3cc(NC(=O)c4ccc(-c5ccc(F)cc5)cc4)c(C)cc3c2)CC1` [Example 260, N-[3-({4-[4-(diethylamino)-4-oxobutyl]-1-piperidinyl}methyl)-6-methyl-7-quinolinyl]-4′-fluoro[1,1′-biphenyl]-4-carboxamide], the melting point is reported as 181 °C.
`CCNC(=O)CCCC1CCN(Cc2cnc3cc(NC(=O)c4ccc(-c5ccc(F)cc5)cc4)c(C)cc3c2)CC1` [Example 261, N-[3-({4-[4-(ethylamino)-4-oxobutyl]-1-piperidinyl}methyl)-6-methyl-7-quinolinyl]-4′-fluoro[1,1′-biphenyl]-4-carboxamide] showed a melting point of 240 °C.
Work on `Cc1cc2cc(CN3CCC(CCCC(=O)N(C)C)CC3)cnc2cc1NC(=O)c1ccc(-c2ccc(F)cc2)cc1` [Example 262, N-[3-({4-[4-(dimethylamino)-4-oxobutyl]-1-piperidinyl}methyl)-6-methyl-7-quinolinyl]-4′-fluoro[1,1′-biphenyl]-4-carboxamide] yielded a melting point of 194 °C.
Molecule `Cc1cc2cc(CN3CCC(CCCC(N)=O)CC3)cnc2cc1NC(=O)c1ccc(-c2ccc(F)cc2)cc1` [Example 264, N-(3-{[4-(4-amino-4-oxobutyl)-1-piperidinyl]methyl}-6-methyl-7-quinolinyl)-4′-fluoro[1,1′-biphenyl]-4-carboxamide] has a melting point of 228 °C.
For `Cc1cc2cc(CN3CCC(CC(=O)N4CCCCC4)CC3)cnc2cc1NC(=O)c1ccc(-c2ccc(F)cc2)cc1` [Example 265, 4′-fluoro-N-[6-methyl-3-({4-[2-oxo-2-(1-piperidinyl)ethyl]-1-piperidinyl}methyl)-7-quinolinyl][1,1′-biphenyl]-4-carboxamide], the melting point was 216 °C.
For `CCN(CC)C(=O)CC1CCN(Cc2cnc3cc(NC(=O)c4ccc(-c5ccc(F)cc5)cc4)c(C)cc3c2)CC1` [Example 266, N-[3-({4-[2-(diethylamino)-2-oxoethyl]-1-piperidinyl}methyl)-6-methyl-7-quinolinyl]-4′-fluoro[1,1′-biphenyl]-4-carboxamide], the melting point was 197 °C.
`CCNC(=O)CC1CCN(Cc2cnc3cc(NC(=O)c4ccc(-c5ccc(F)cc5)cc4)c(C)cc3c2)CC1` [Example 267, N-[3-({4-[2-(ethylamino)-2-oxoethyl]-1-piperidinyl}methyl)-6-methyl-7-quinolinyl]-4′-fluoro[1,1′-biphenyl]-4-carboxamide] gave a melting point of 251 °C.
`Cc1cc2cc(CN3CCC(CC(=O)N(C)C)CC3)cnc2cc1NC(=O)c1ccc(-c2ccc(F)cc2)cc1` [Example 268, N-[3-({4-[2-(dimethylamino)-2-oxoethyl]-1-piperidinyl}methyl)-6-methyl-7-quinolinyl]-4′-fluoro[1,1′-biphenyl]-4-carboxamide] showed a melting point of 219 °C.
Work on `CNC(=O)CC1CCN(Cc2cnc3cc(NC(=O)c4ccc(-c5ccc(F)cc5)cc4)c(C)cc3c2)CC1` [Example 269, 4′-fluoro-N-[6-methyl-3-({4-[2-(methylamino)-2-oxoethyl]-1-piperidinyl}methyl)-7-quinolinyl][1,1′-biphenyl]-4-carboxamide] yielded a melting point of 243 °C.
With `Cc1cc2cc(CN3CCC(CC(N)=O)CC3)cnc2cc1NC(=O)c1ccc(-c2ccc(F)cc2)cc1` [Example 270, N-(3-{[4-(2-amino-2-oxoethyl)-1-piperidinyl]methyl}-6-methyl-7-quinolinyl)-4′-fluoro[1,1′-biphenyl]-4-carboxamide] the melting point was 249 °C.
`Cc1cc2cc(CN3CCC(C(=O)N4CCCCC4)CC3)cnc2cc1NC(=O)c1ccc(-c2ccc(F)cc2)cc1` [Example 271, 4′-fluoro-N-(6-methyl-3-{[4-(1-piperidinylcarbonyl)-1-piperidinyl]methyl}-7-quinolinyl)[1,1′-biphenyl]-4-carboxamide] showed a melting point of 250 °C.
